Source: patent US20240076609A1, “COMPOSITIONS AND METHODS FOR CULTURING AND EXPANDING CELLS” (LIFE TECHNOLOGIES CORPORATION, priority 2017, published 2024)
Several values for one entry are separate records, joined by “and”; a condition that tells them apart may be missing. Identical values can stand only once.

Legend:
[1] = test system: Non-naïve T cells; assay: CD8+/CD4+ phenotype after 10 days with 2-DG in non-naïve T cells; format: cell-based, human; details: 4 mM 2-DG
Protocol: (§1) For some studies, CD8+ and CD4+ T cells were isolated from PBMCs by negative selection using Untouched Human CD8+ and CD4+ T Cells Kits. Naïve and non-naïve T cells were isolated from enriched T cells by positive selection using CD45RA nanobeads (Miltenyi). Phenotype: Primary human T cells were expanded for 10 days with and without 2-DG and 5% human AB serum. DYNABEADS® were removed from 2×10^6 cells by magnetic separation. Surface staining was performed with antibodies against CD3 (Invitrogen, Cat. No. CD0329), CD4 (Molecular Probes, Cat. No. A15858), CD8 (Invitrogen, Cat. No. MHCD0828). Flow cytometric analysis was performed on a Gallios flow cytometer and Kaluza software (Beckman Coulter, Indianapolis IN). For some studies, CD8+ and CD4+ T cells were isolated from PBMCs by negative selection using Untouched Human CD8+ and CD4+ T Cells Kits. Naïve and non-naïve T cells were isolated from enriched T cells by positive selection using CD45RA nanobeads (Miltenyi). Phenotype: Primary human T cells were expanded for 10 days with and without 2-DG and 5% human AB serum. DYNABEADS® were removed from 2×10^6 cells by magnetic separation. Surface staining was performed with antibodies against CD3 (Invitrogen, Cat. No. CD0329), CD4 (Molecular Probes, Cat. No. A15858), CD8 (Invitrogen, Cat. No. MHCD0828). Flow cytometric analysis was performed on a Gallios flow cytometer and Kaluza software (Beckman Coulter, Indianapolis IN).

[2] = test system: mixed CD4+ T cells and CD8+ T cells; assay: CD4+/CD8+ frequencies after 10 days with 2-DG in mixed CD4+:CD8+ cells (5:1, 10:1); format: cell-based, human; details: 0.25 mM 2-DG; for correction of deficits in CD8+ T cells compared to day 0: CD4+:CD8+ mixed 5:1 and 10:1
Protocol: as §1

[3] = test system: Naïve T cells; assay: CD8+/CD4+ phenotype after 10 days with 2-DG in naïve T cells; format: cell-based, human; details: 4 mM 2-DG
Protocol: as §1

[4] = test system: Naïve T cells; assay: Expansion of naïve T cells with 2-DG; format: cell-based, human; details: 4 mM 2-DG
Protocol: T cell activation and expansion: T cells (seeding density 1×10^6 vc/mL) were activated with DYNABEADS® Human T-Expander CD3/CD28 (Thermo Fisher Scientific, Cat. No. 11141D) at a ratio of 3 beads per T cell and cultured in serum-free medium, animal origin free medium. T cells were counted on days 5, 7, 10, and 12 on a Vi-CELL XR analyzer (Beckman Coulter, Indianapolis IN) and fed with or without 2-DG (0.25 mM, 0.5 mM, 1 mM, 2 mM, and 4 mM) and 5% human AB serum to a density of 5×10^5 vc/mL on days 3, 5, and 7 and 1×10^6 vc/mL on day 10. For some studies, CD8+ and CD4+ T cells were isolated from PBMCs by negative selection using Untouched Human CD8+ and CD4+ T Cells Kits. Naïve and non-naïve T cells were isolated from enriched T cells by positive selection using CD45RA nanobeads (Miltenyi). […]

[5] = test system: Primary human T cells; assay: CD8+/CD4+ phenotype with 2-DG and CD Lipid Concentrate 1 or 2; format: cell-based
Protocol: FIGS. 48 and 49 represent the data from Tables 42 and 43 which depicts the gating strategy for differentiation phenotyping. T cells expanded for 10 days were stained with antibodies against CD3, CD4, and CD8. Flow cytometric analysis was performed in a Beckman-Coulter Gallios analyzer.
Phenotype: Primary human T cells were expanded for 10 days with and without 2-DG and 5% human AB serum. DYNABEADS® were removed from 2×10^6 cells by magnetic separation. Surface staining was performed with antibodies against CD3 (Invitrogen, Cat. No. CD0329), CD4 (Molecular Probes, Cat. No. A15858), CD8 (Invitrogen, Cat. No. MHCD0828). Flow cytometric analysis was performed on a Gallios flow cytometer and Kaluza software (Beckman Coulter, Indianapolis IN).
FIGS. 48 and 49 represent the fold increase in CD8:CD4 ratio compared to day 0.

[6] = Day 10, non-naïve T cells, replicates
[7] = Day 10, 10:1 CD4+ CD8+ ratio, average
[8] = Day 10, 5:1 CD4+ CD8+ ratio, replicates
[9] = Day 10, 10:1 CD4+ CD8+ ratio, replicates

O=CC[C@@H](O)[C@H](O)[C@H](O)CO [2-DG, 2-Deoxy-D-Glucose]
effect on CD8+:CD4+ ratio in non-naïve T cells ([1]; 10 days): lesser effect
% CD4+ (Avg) ([1]; Day 10, non-naïve T cells): 81.08%
% CD8+ (Avg) ([1]; Day 10, non-naïve T cells): 12.23%
% Ratios (CD8+/CD4+) ([1]; Day 10, non-naïve T cells): 0.15
% CD4+ [1, 6]: 80.85% and 81.31%
% CD8+ [1, 6]: 12.23%
Fold Increase compared to Baseline ([1]; Day 10 vs Day 0, non-naïve T cells): 0.35
% CD4+ ([2]; Day 10, 10:1 CD4+ CD8+ ratio): 44.89% and 44.25%
% CD4+ (Avg) ([2]; Day 10, 10:1 CD4+ CD8+ ratio): 44.57%
% CD8+ ([2]; Day 10, 10:1 CD4+ CD8+ ratio): 43.55% and 45.35%
% CD8+ (Avg) ([2]; Day 10, 10:1 CD4+ CD8+ ratio): 44.45%
% CD4+ (Avg) [2, 7]: 44.57%
% CD8+ (Avg) [2, 7]: 44.45%
% CD4+ (Avg) ([2]; Day 10, 5:1 CD4+ CD8+ ratio): 33.39%
% CD8+ (Avg) ([2]; Day 10, 5:1 CD4+ CD8+ ratio): 53.83%
% CD4+ [2, 8]: 32.91% and 33.88%
% CD8+ [2, 8]: 53.50% and 54.17%
% CD4+ [2, 9]: 44.25% and 44.89%
% CD8+ [2, 9]: 45.35% and 43.55%
correction of deficits in CD8+ T cells compared to day 0 [2]: able to correct for a large deficits in CD8+ T cells
correction of deficits in CD8+ T cells compared to day 0 ([2]; listed as 2-DH): able to correct for substantial deficits in CD8+ T cells
% CD4+ (Avg) ([3]; Day 10): 59.69%
% CD8+ (Avg) ([3]; Day 10): 36.66%
% Ratios (CD8+/CD4+) ([3]; Day 10): 2.07
% CD4+ ([3]; Day 10, replicates): 25.82% and 25.23%
% CD8+ ([3]; Day 10, replicates): 52.71% and 53.26%
Fold Increase compared to Baseline ([3]; Day 10 vs Day 0): 3.38
effect of 2-DG on growth of naïve T cells ([4]; 12 days): did not affect growth of either cell type
Cultured Naïve T Cell Population Doublings ([4]; day 5): 1.70
Cultured Naïve T Cell Population Doublings ([4]; day 7): 3.92
Cultured Naïve T Cell Population Doublings ([4]; day 10): 5.45
Cultured Naïve T Cell Population Doublings ([4]; day 12): 6.13
fold increase in CD8:CD4 ratio compared to day 0 ([5]; 2-DG with CLC1): 1.6 fold
fold increase in CD8:CD4 ratio compared to day 0 ([5]; 2-DG with CLC2): 1.4 fold
